For the experiment, the target named is T1, human FXR (Homo sapiens, UniProt Q96RI1).
T1 construct: expressed in transfected cells; host or cells: HEK293 cells stably carrying a 5xGal4 response element-luciferase reporter, transiently transfected with pcDNA3.1-Gal4-FXR
T1 sequence (Q96RI1 262-486 limits assumed): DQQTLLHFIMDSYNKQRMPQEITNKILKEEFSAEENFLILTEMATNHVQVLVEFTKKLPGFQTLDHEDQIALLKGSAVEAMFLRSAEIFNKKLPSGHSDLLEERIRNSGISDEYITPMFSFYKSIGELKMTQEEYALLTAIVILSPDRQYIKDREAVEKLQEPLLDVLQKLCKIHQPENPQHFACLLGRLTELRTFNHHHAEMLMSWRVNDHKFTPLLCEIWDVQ
Put plainly: transient human FXR/Gal4-luciferase reporter assay. The format is cell-based. The following applies: Gal4-hFXR fusion construct, luciferase reporter in HEK293 cells; overnight incubation; response as percentage of 8 μM GW-4064 control. Summed up: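 HEK293 cells stably carrying a 5×Gal4-response-element firefly luciferase reporter were transiently transfected with a Gal4 DBD-human FXR LBD fusion, then treated overnight with compounds at 37 °C. Steady-Glo luminescence, minus DMSO background, was expressed as percent of the response to 8 μM GW-4064.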
As to `CC(F)(F)c1nc(C23CCC(CN(C(=O)N[C@H]4CC[C@H](O)CC4)c4cccc(C#N)c4)(CC2)CC3)no1` [Example 98, 1-(3-cyanophenyl)-1-((4-(5-(1,1-difluoroethyl)-1,2,4-oxadiazol-3-yl)bicyclo[2.2.2]octan-1-yl)methyl)-3-((1R,4R)-4-hydroxycyclohexyl)urea], a half-maximal response (EC50) required 230 nM.
`Cn1nc(C2CC2)cc1C12CCC(CN(c3cccc(C#N)c3)C(=O)[C@H]3C[C@@](C)(O)C3)(CC1)CC2` [Example 74, (1S,3S)-N-(3-cyanophenyl)-N-((4-(3-cyclopropyl-1-methyl-1H-pyrazol-5-yl)bicyclo[2.2.2]octan-1-yl)methyl)-3-hydroxy-3-methylcyclobutane-1-carboxamide]: the EC50 (in general, the midpoint of the concentration-response curve) is 1350 nM.
The figure for `CC(C)(C)c1noc(C23CCC(CN(c4cccc(Br)c4)C(=O)[C@H]4C[C@](O)(C(F)(F)F)C4)(CC2)CC3)n1` [Example 36, (1S,3S)—N-(3-bromophenyl)-N-((4-(3-(tert-butyl)-1,2,4-oxadiazol-5-yl)bicyclo[2.2.2]octan-1-yl)methyl)-3-hydroxy-3-(trifluoromethyl)cyclobutane-1-carboxamide] is 135 nM; for `CC(C)(CO)CNC(=O)N(CC12CCC(c3noc(C(C)(F)F)n3)(CC1)CC2)c1cccc(C#N)c1` [Example 100, 1-(3-cyanophenyl)-1-((4-(5-(1,1-difluoroethyl)-1,2,4-oxadiazol-3-yl)bicyclo[2.2.2]octan-1-yl)methyl)-3-(3-hydroxy-2,2-dimethylpropyl)urea] it is 1480 nM.
In turn, `CCOc1ccc(Nc2cccc(N(CC34CCC(c5noc(C(C)(C)C)n5)(CC3)CC4)C(=O)C34CC(F)(C3)C4)c2)cc1` [Example 85, N-((4-(5-(tert-butyl)-1,2,4-oxidial-3-yl)bicyclo[2.2.2]octan-1-yl)methyl)-N-(3-((4-ethoxyphenyl)amino)phenyl)-3-fluorobicyclo[1.1.1]pentane-1-carboxamide] displayed an EC50 of 608 nM.
For the molecule `CC(F)(F)c1nc(C23CCC(CN(C(=O)C45CC(F)(C4)C5)c4ccc(F)c(F)c4)(CC2)CC3)no1` [Example 10, N-((4-(5-(1,1-difluoroethyl)-1,2,4-oxadiazol-3-yl)bicyclo[2.2.2]octan-1-yl)methyl)-N-(3,4-difluorophenyl)-3-fluorobicyclo[1.1.1]pentane-1-carboxamide], the EC50 was 124 nM.
As to `CC(C)(O)COc1cccc(N(CC23CCC(c4noc(C(C)(C)C)n4)(CC2)CC3)C(=O)C23CC(F)(C2)C3)c1` [Example 112, N-((4-(5-(tert-butyl)-1,2,4-oxadiazol-3-yl)bicyclo[2.2.2]octan-1-yl)methyl)-3-fluoro-N-(3-(2-hydroxy-2-methylpropoxy)phenyl)bicyclo[1.1.1]pentane-1-carboxamide], the EC50 came to 63 nM.
Regarding `Cn1nc(C2CC2)cc1C12CCC(CN(C(=O)C3CCC(F)(F)CC3)c3cccc(S(C)(=O)=O)c3)(CC1)CC2` [Example 77, N-((4-(3-cyclopropyl-1-methyl-1H-pyrazol-5-yl)bicyclo[2.2.2]octan-1-yl)methyl)-4,4-difluoro-N-(3-(methylsulfonyl)phenyl) cyclohexane-1-carboxamide], the EC50 is 4000 nM.
The figure for `CC(F)(F)c1nc(C23CCC(CN(C(=O)C45CC(F)(C4)C5)c4cccc(C#N)c4)(CC2)CC3)no1` [Example 4, N-(3-cyanophenyl)-N-((4-(5-(1,1-difluoroethyl)-1,2,4-oxadiazol-3-yl)bicyclo[2.2.2]octan-1-yl)methyl)-3-fluorobicyclo[1.1.1]pentane-1-carboxamide] is 12 nM; for `CC(F)(F)c1nc(C23CCC(CN(C(=O)C4CC(O)(C(F)(F)F)C4)c4cccc(C#N)c4)(CC2)CC3)no1` (centres unmarked) [Example 5, N-(3-cyanophenyl)-N-((4-(5-(1,1-difluoroethyl)-1,2,4-oxadiazol-3-yl)bicyclo[2.2.2]octan-1-yl)methyl)-3-hydroxy-3-(trifluoromethyl)cyclobutane-1-carboxamide] it is 164 nM; for `CC(F)(F)c1nc(C23CCC(CN(C(=O)C4CC4(F)F)c4cccc(Br)c4)(CC2)CC3)no1` (racemic) [Example 31, N-(3-bromophenyl)-N-((4-(5-(1,1-difluoroethyl)-1,2,4-oxadiazol-3-yl)bicyclo[2.2.2]octan-1-yl)methyl)-2,2-difluorocyclopropane-1-carboxamide] it is 261 nM.

For the origin of these results see patent US12319676B2, “Substituted amide compounds useful as farnesoid X receptor modulators” (BRISTOL-MYERS SQUIBB COMPANY, priority 2019, dated 2025).
